Laboratory results reported in US20110224210A1, “NOVEL BIS-AMIDES AS ANTI-MALARIAL AGENTS” (priority 2008, published 2011).

tested on: P. falciparum K1 (strain resistant to chloroquine and pyrimethamine), erythrocytic stages; test: Plasmodium falciparum in vitro assay, [3H] hypoxanthine incorporation; format: cell-based; conditions: Plasmodium falciparum, K1, P. falciparum strain K1; [3H] hypoxanthine incorporation; read-out: IC50 (nM) on K1
Method: In Vitro Antimalarial Activity: Plasmodium falciparum In Vitro Assay
In vitro activity against erythrocytic stages of P. falciparum is determined using a [^3H] hypoxanthine incorporation assay. One strain resistant to chloroquine and pyrimethamine (P. falciparum K1) is used in the assays, and all test compounds are compared for activity with the standard drugs chloroquine (sigma C6628) and artemisinin (sigma-36, 159-3). Compounds are diluted in DMSO to 1 mM and added to parasite cultures incubated in RPMI 1640 medium without hypoxanthine, supplemented with HEPES (5.94 g/L), NaHCO3 (2.1 g/L), neomycin (100 U/mL), Albumax (5 g/L) and washed human red cells at 2.5% haematocrit (0.3% parasitaemia). Seven serial doubling dilutions of each compound are prepared in 96-well microtitre plates and incubated in a humidifying atmosphere at 37° C.; 4% CO2, 3% O2, 93% N2.
After 48 h, 50 μl of [3H] hypoxanthine (0.5 μCi) is added to each well of a plate. The plates are incubated for a further 24 h under the same conditions. The plates are then harvested with a Betaplate cell harvester (Wallac) and washed with distilled water. The dried filters are inserted into a plastic foil with 10 mL of scintillation fluid, and counted in a Betaplate liquid scintillation counter. IC50 values are calculated from sigmoidal inhibition curves using Microsoft Excel.

SMILES | IC50 [nM]
CC(=O)N1CCN(c2ccc(CN(C(=O)C=Cc3ccc(C(F)(F)F)cc3)[C@@H](Cc3ccccc3)C(=O)N(C)CCN(C)Cc3cncnc3)cc2)CC1 [Example 250, (S)-N-[4-(4-Acetyl-piperazin-1-yl)-benzyl]-N-(1-{methyl-[2-(methyl-pyrimidin-5-ylmethyl-amino)-ethyl]-carbamoyl}-2-phenyl-ethyl)-3-(4-trifluoromethyl-phenyl)-acrylamide] | 27
COc1ccc(C=CC(=O)N(Cc2ccc(-c3cncnc3)cc2)[C@@H](Cc2ccccc2)C(=O)N2CCC(N(C)C)CC2)cn1 [Example 41, (S)-N-[1-Benzyl-2-(4-dimethylamino-piperidin-1-yl)-2-oxo-ethyl]-3-(6-methoxy-pyridin-3-yl)-N-(4-pyrimidin-5-yl-benzyl)-acrylamide] | 169
COCCN(C)C(=O)[C@H](Cc1ccccc1)N(Cc1ccc(N2CCOCC2)cc1)C(=O)C=Cc1nc(C)oc1C [Example 65, (S)-3-(2,5-Dimethyl-oxazol-4-yl)-N-{1-[(2-methoxy-ethyl)-methyl-carbamoyl]-2-phenyl-ethyl}-N-(4-morpholin-4-yl-benzyl)-acrylamide] | 269
COCCN(C)C(=O)[C@H](Cc1ccccc1)N(Cc1ccc(-c2ccccn2)cc1)C(=O)C=Cc1csc(C)n1 [Example 78, (S)-N-{1-[(2-Methoxy-ethyl)-methyl-carbamoyl]-2-phenyl-ethyl}-3-(2-methyl-thiazol-4-yl)-N-(4-pyridin-2-yl-benzyl)-acrylamide] | 47
CN(C(=O)[C@H](Cc1ccccc1)N(Cc1ccc(-c2ccccn2)cc1)C(=O)C=Cc1ccc(C(F)(F)F)cc1)[C@@H]1CCN(Cc2ccccc2)C1 [Example 173, N-{1-[((R)-1-Benzyl-pyrrolidin-3-yl)-methyl-carbamoyl]-(S)-2-phenyl-ethyl}-N-(4-pyridin-2-yl-benzyl)-3-(4-trifluoromethyl-phenyl)-acrylamide] | 52
COCCN(C)C(=O)[C@H](Cn1cccc1)N(Cc1ccc(-c2ccccn2)cc1)C(=O)C=Cc1ccc(C(F)(F)F)cc1 [Example 163, (S)-N-{1-[(2-Methoxy-ethyl)-methyl-carbamoyl]-2-pyrrol-1-yl-ethyl}-N-(4-pyridin-2-yl-benzyl)-3-(4-trifluoromethyl-phenyl)-acrylamide] | 37
CN(C)C1CCN(C(=O)C(Cc2ccn(C)n2)N(Cc2ccc(-c3ccncc3)cc2)C(=O)C=Cc2ccc(C(F)(F)F)cc2)CC1 (racemic) [Example 140] | 191

Now those with a lower IC50, led by results:

IC50 [nM] | SMILES
17 | CN(C)[C@H]1CCN(C(=O)[C@H](Cc2ccccc2)N(Cc2ccc(-c3ccccn3)cc2)C(=O)C=Cc2ccc(C(F)(F)F)cc2)C1 [Example 54, N-[(S)-1-Benzyl-2-((S)-3-dimethylamino-pyrrolidin-1-yl)-2-oxo-ethyl]-N-(4-pyridin-2-yl-benzyl)-3-(4-trifluoromethyl-phenyl)-acrylamide]
11 | COc1cccc(COCCN(C)C(=O)[C@H](Cc2ccccc2)N(Cc2ccc(N3CCOCC3)cc2)C(=O)C=Cc2ccc(C(F)(F)F)cc2)c1 [Example 191, (S)-N-(1-{[2-(3-Methoxy-benzyloxy)-ethyl]-methyl-carbamoyl}-2-phenyl-ethyl)-N-(4-morpholin-4-yl-benzyl)-3-(4-trifluoromethyl-phenyl)-acrylamide, formic acid]
14 | O=C([C@H](Cc1ccccc1)N(Cc1ccccn1)C(=O)C=Cc1ccc(C(F)(F)F)cc1)N1CCC(Cc2ccccc2)CC1 [Example 44, (S)-N-[1-Benzyl-2-(4-benzyl-piperidin-1-yl)-2-oxo-ethyl]-N-pyridin-2-ylmethyl-3-(4-trifluoromethyl-phenyl)-acrylamide]
< 8 | COCCN(C)C(=O)[C@H](Cc1ccccc1)N(Cc1ccc(-c2ccccn2)cc1)C(=O)C=Cc1ccc(C(F)(F)F)cn1 [Example 89, (S)-N-{1-[(2-Methoxy-ethyl)-methyl-carbamoyl]-2-phenyl-ethyl}-N-(4-pyridin-2-yl-benzyl)-3-(5-trifluoromethyl-pyridin-2-yl)-acrylamide]
